pIC50: −log10 of the molar value. Values after ≈ are worked out from the molar mass of the structure shown. Read-outs that look alike come from different tables or passages of the source.
How the values were obtained:
[1] = system: NCI-H358 cells; test: NCI-H358 CTG proliferation assay (120 h) (NSCLC, G12C); format: cell-based, human; settings: Homo sapiens, assay 2, CTG, read-out: H358 (assay 2) IC50
Procedure, shortened: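 NCI-H358 cells (KRAS G12C) were seeded at 2000/well (assay 1) or 200/well (assay 2) in RPMI-1640 + 10% FCS and dosed with a logarithmic series, DMSO-normalized. After 120 h, viability was read by CellTiter-Glo luminescence as percent of DMSO control, with a T0 read at dosing. IC50 came from a four-parameter fit.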

[2] = system: AsPC-1 cells; test: AsPC-1 CTG proliferation assay (120 h) (pancreatic cancer, G12D); format: cell-based; settings: Homo sapiens, ASPC1
Description: AsPC-1 CTG Proliferation Assay (120 h) (Pancreatic Cancer, G12D)
The CTG assay is designed to measure quantitatively the proliferation of AsPC-1 cells (ATCC […]), using the CellTiter Glow Assay Kit (Promega G7571). Cells are grown in RPMI medium (ATCC) supplemented with Fetal Calf Serum (Life Technologies, Gibco BRL, Cat. No. 10270-106). On “day 0” 2000 AsPC-1 cells are seeded in 60 μL RPMI ATCC+10% FCS+Penstrep in a 384-well plate, flat and clear bottom (Greiner, PNr. 781091). Cells are then incubated in the plates at 37° C. in a CO2 incubator overnight. On day 1, compounds (10 mM stock in DMSO) are added with the ECHO acoustic liquid handler system (Beckman Coulter), including DMSO controls. Plates are incubated for 120 h, and cell viability is measured using CellTiter-Glo luminescent cell viability reagent (Promega product code G7570). Viability (stated as percent of control) is defined as relative luminescence units RLU of each well divided by the RLU of cells in DMSO controls. IC50 values are determined from viability measurements by non-linear regression using a four-parameter model.

[3] = Solubility measurement (DMSO solution method), McIlvaine buffer pH 4.5 or 6.8; format: physicochemical; settings: aqueous buffer, kinetic from dmso stock, DMSO stock diluted to 250 μM, 24 h shaking at ambient temperature
Procedure, shortened: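 DMSO stock diluted into McIlvaine buffer, pH 4.5 or 6.8, to 250 µM final, shaken 24 h at ambient temperature. Precipitate removed by filtration; filtrate quantified by LC-UV against a fully dissolved reference in acetonitrile/water 1:1.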

[4] = McIlvaine buffer pH 4.5, read-out: solubility pH 4.5
[5] = McIlvaine buffer pH 6.8, read-out: solubility pH 6.8

pIC50 [1] | pIC50 [2] | solubility at 24 h [3, 4] [µg/mL] | solubility at 24 h [3, 5] [µg/mL] | SMILES
7.34 | 5.88 | 3 (≈ 4.94 µM) | < 1 | C[C@H](Oc1cc(-n2cncc3ccnc2-3)nc(-c2noc3c2CCC[C@@]32CCCc3sc(N)c(C#N)c32)n1)[C@@H]1CCCN1C [II-105]
5.65 | 5.02 | 107 (≈ 187 µM) | 13 (≈ 22.7 µM) | Cc1cn(-c2cc(O[C@@H](C)[C@@H]3CCCN3C)nc(-c3noc4c3CCC[C@@]43CCCc4sc(N)c(C#N)c43)n2)nn1 [II-106]
6.66 | 5.55 | 3 (≈ 4.72 µM) | < 1 | C[C@H](Oc1cc(-n2ccc(Br)n2)nc(-c2noc3c2CCC[C@@]32CCCc3sc(N)c(C#N)c32)n1)[C@@H]1CCCN1C [II-110]
6.89 | 5.70 | > 173 | 107 (≈ 168 µM) | C[C@H](Oc1cc(-n2cc(Cn3ccnc3)nn2)nc(-c2noc3c2CCC[C@@]32CCCc3sc(N)c(C#N)c32)n1)[C@@H]1CCCN1C [II-113]
6.53 | 5.50 | 32 (≈ 53.5 µM) | < 1 | C[C@H](Oc1cc(-n2cc(C3CC3)nn2)nc(-c2noc3c2CCC[C@@]32CCCc3sc(N)c(C#N)c32)n1)[C@@H]1CCCN1C [II-118]
7.38 | 5.88 | < 1 | < 1 | C[C@H](Oc1cc(-n2ccc(-c3ccccn3)n2)nc(-c2noc3c2CCC[C@@]32CCCc3sc(N)c(C#N)c32)n1)[C@@H]1CCCN1C [II-119]
6.72 | 5.45 | 106 (≈ 184 µM) | < 1 | C[C@H](Oc1cc(-n2ccnc2)nc(-c2noc3c2CCC[C@@]32CCCc3sc(N)c(C#N)c32)n1)[C@@H]1C[C@@H](F)CN1C [II-120]

Second part, the molecule before the results:

SMILES | pIC50 [1] | pIC50 [2] | solubility at 24 h [3, 4] [µg/mL] | solubility at 24 h [3, 5] [µg/mL]
C[C@H](Oc1cc(-c2ccc(N)nc2)nc(-c2noc3c2CCC[C@@]32CCCc3sc(N)c(C#N)c32)n1)[C@@H]1CCCN1C [II-101] | 6.71 | 5.52 | 88 (≈ 151 µM) | 2 (≈ 3.43 µM)
C[C@H](Oc1cc(-c2ccn(C3COC3)n2)nc(-c2noc3c2CCC[C@@]32CCCc3sc(N)c(C#N)c32)n1)[C@@H]1CCCN1C [II-109] | 7.11 | 5.42 | 117 (≈ 191 µM) | 61 (≈ 99.5 µM)
C[C@H](Oc1cc(-c2cnsc2)nc(-c2noc3c2CCC[C@@]32CCCc3sc(N)c(C#N)c32)n1)[C@@H]1CCCN1C [II-111] | 6.86 | 5.55 | 22 (≈ 38.3 µM) | < 1
C[C@H](O)Cn1ccc(-c2cc(O[C@@H](C)[C@@H]3CCCN3C)nc(-c3noc4c3CCC[C@@]43CCCc4sc(N)c(C#N)c43)n2)n1 [II-112] | 6.85 | 5.65 | > 139 | 121 (≈ 197 µM)
COC(=O)c1ccc(-c2cc(O[C@@H](C)[C@@H]3CCCN3C)nc(-c3noc4c3CCC[C@@]43CCCc4sc(N)c(C#N)c43)n2)o1 [II-114] | 6.91 | 5.64 | 41 (≈ 66.7 µM) | < 1
C[C@H](Oc1cc(-c2ccn(C[C@@H](C)O)n2)nc(-c2noc3c2CCC[C@@]32CCCc3sc(N)c(C#N)c32)n1)[C@@H]1CCCN1C [II-117] | 7.01 | 5.78 | > 183 | > 147
COCc1cn(-c2cc(O[C@@H](C)[C@@H]3CCCN3C)nc(-c3noc4c3CCC[C@@]43CCCc4sc(N)c(C#N)c43)n2)nn1 [II-121] | 6.57 | 5.51 | 109 (≈ 181 µM) | 69 (≈ 115 µM)
CNC(=O)c1cn(-c2cc(O[C@@H](C)[C@@H]3CCCN3C)nc(-c3noc4c3CCC[C@@]43CCCc4sc(N)c(C#N)c43)n2)nn1 [II-122] | 6.08 | 5.47 | 122 (≈ 198 µM) | 98 (≈ 159 µM)
C[C@H](Oc1cc(-n2cc(-c3cccnc3)nn2)nc(-c2noc3c2CCC[C@@]32CCCc3sc(N)c(C#N)c32)n1)[C@@H]1CCCN1C [II-123] | 6.36 | 5.81 | < 1 | < 1
C[C@H](Oc1cc(-n2cc(Cn3cncn3)nn2)nc(-c2noc3c2CCC[C@@]32CCCc3sc(N)c(C#N)c32)n1)[C@@H]1CCCN1C [II-124] | 6.94 | 5.68 | > 148 | 108 (≈ 169 µM)

— US20240174690A1, “ANNULATED 2-AMINO-3-CYANO THIOPHENES AND DERIVATIVES FOR THE TREATMENT OF CANCER” (BOEHRINGER INGELHEIM INTERNATIONAL GMBH, priority 2021, published 2024)
